Measurements taken from patent US11020457B2, “Compositions and methods for protecting the kidney from ischemia reperfusion injury” (University of Virginia Patent Foundation, priority 2013, dated 2021).
“Also recorded” adds a separate entry of the source.

Legend:
C57BL/6 mice [1] = experiment: Renal IRI in WT mice: plasma creatinine, H&E histology, NGAL; assay type: in vivo
Procedure: (§1) All experiments were performed in accordance with the National Institutes of Health and Institutional Animal Care and Use Guidelines. The Animal Care and Use Committee of the University of Virginia approved all procedures and protocols. C57BL/6 mice from the Jackson Laboratory and hepcidin knockout mice (HAMP−/−), a kind gift from Dr Cindy Roy (John Hopkins University) were used in this study. All experiments were performed on 8-10 weeks old male mice. Kidney ischemia-reperfusion surgery was performed as previously reported (44). The core temperature of the mice was maintained between 34° C. and 36° C. using a heating pad. After anesthetizing the mice (ketamine, 12 mg/ml; atropine, 0.48 mg/ml; xylazine, 24 mg/ml; […] mixture administered per 20 g body weight), bilateral flank incisions were made, both renal pedicles were exposed, and cross-clamped for 26 minutes (severe I/R injury) or 24 minutes (mild I/R injury). After the determined ischemia, clamps were removed, and kidneys were allowed to reperfuse for 24 hours. Ambient postoperative air temperature was maintained between 30° C. and 32° C. until mice had fully recovered. Sham-operated animals underwent bilateral flank incisions without clamping of renal pedicles. Twenty-four hours later, mice were euthanized, and tissues were harvested.
Animals were divided into three groups, injected intraperitoneally with water and underwent IRI (IRI), injected intraperitoneally with 50-100 μg hepcidin at different time points prior to IRI (Hepcidin-IRI) or were sham operated (Sham). The experimental design is depicted in FIG. 2a.
Renal function was determined by measurement of plasma creatinine, determined using a modified Jaffe colorimetric assay (44).
Kidneys were fixed in buffered formalin for 48 h, embedded in paraffin, sectioned (3-μm thickness), and stained with hematoxylin and eosin (H&E). The extent of acute tubular necrosis (ATN) following IRI was assessed using H&E stained kidney sections. An investigator blinded to the sample identities was used for these analyses to have an unbiased approach.
(§2) For RNA isolation, frozen tissues were re-suspended in RLT buffer (Qiagen Inc, Valencia, Calif.) and homogenized using TissueLyser system (Qiagen Inc, Valencia, Calif.). Total RNA from tissue homogenate was purified using RNAeasy mini kit (Qiagen Inc, Valencia, Calif.) following manufacturers instructions. 1 μg of RNA was used to synthesize cDNA using the iScript cDNA synthesis kit (Bio-Rad). The cDNA template was mixed with iTAQ SYBR green universal super mix (Bio-Rad) and quantitative PCR was carried out on CFX Connect system (Bio-Rad). Predesigned primers for Caspase-3 and Bcl-2 were purchased from Bio-rad. Glyceraldehyde-3-phosphate dehydrogenase (GAPDH) was amplified in parallel and used as the reference gene in quantification. Data is expressed as the relative gene expression and was calculated using the 2 (−ρρC(T)) method.

C57BL/6 mice [2] = experiment: Renal IRI in WT mice: Western blot of kidney ferroportin and H-Ferritin; assay type: in vivo; settings: for kidney ferroportin expression (membrane fraction): pretreatment with hepcidin, p<0.01, FIG. 5a-b
Procedure: as §1, with “harvested. […]” for “harvested.”
Snap frozen tissue sections were homogenized in Tris-Triton tissue lysis buffer containing complete protease inhibitor cocktail using a Dounce Homogenizer. […] H-Ferritin was measured in the whole kidney and spleen lysates. […] The primary antibodies were detected with Donkey anti-goat Alexa 800 and goat anti-rabbit Alexa 800 antibodies (LiCor Bioscience). Mouse monoclonal GAPDH and β-Actin (Abcam) were used as the loading controls and detected using Donkey anti Mouse Alexa 680 antibody (LiCor Bioscience). Quantitation of data was performed using densitometry software (Licor Bioscience).

[3] = tested on: hepcidin knockout mice (HAMP−/−); experiment: Mild renal IRI in HAMP-/- mice: kidney H-Ferritin and apoptosis (Caspase-3, Bcl-2, TUNEL); assay type: in vivo; settings: for kidney Caspase-3 expression: HAMP-/- IRI Vs HAMP-/- Hepcidin-IRI, p<0.007, FIG. 7c; for TUNEL-positive cells in the kidney: hepcidin treated HAMP-/- IRI vs HAMP-/- IRI, FIG. 7g; for kidney H-Ferritin levels: hepcidin treated HAMP-/- IRI vs untreated p<0.05, lower than sham p<0.005, FIG. 7a-b
Procedure: as §1
Apoptotic cells in the kidney were detected by TUNEL assay following the manufacturer's protocol (Roche Diagnostics, Mannheim, Germany). Briefly, PLP-fixed kidney sections were immersed in 3% hydrogen peroxide-methanol (10 minutes) and permeabilized with cold 0.1% Triton-X100 and 0.1% […] (2 minutes). DNA fragments in apoptotic cells were then labeled and identified by terminal transferase dUTP conjugated to fluorescein (Roche Diagnostics) for 60 minutes at room temperature in dark. The apoptotic cells were imaged using a Zeiss Axiovert 200 microscope with Apo Tome (Zeiss).
Snap frozen tissue sections were homogenized in Tris-Triton tissue lysis buffer containing complete protease inhibitor cocktail using a Dounce Homogenizer. Membrane fractions were isolated from the whole kidney lysate using membrane isolation kit (Thermo Pierce) to determine ferroportin expression. H-Ferritin was measured in the whole kidney and spleen lysates. Protein content in the homogenate was estimated using the BCA protein estimation kit. Twenty to thirty microgram of protein per sample were loaded on a 10% NuPage Bis-Tris gel under reducing conditions. The resolved proteins were transferred onto a Nitrocellulose membrane (Licor Bioscience) and probed with goat anti-mouse H-Ferritin (Santa Cruz) and rabbit anti-mouse ferroportin (Novus Biologics) antibodies. The primary antibodies were detected with Donkey anti-goat Alexa 800 and goat anti-rabbit Alexa 800 antibodies (LiCor Bioscience). Mouse monoclonal GAPDH and β-Actin (Abcam) were used as the loading controls and detected using Donkey anti Mouse Alexa 680 antibody (LiCor Bioscience). Quantitation of data was performed using densitometry software (Licor Bioscience).
as §2
WT mice injected with hepcidin had higher levels of H-Ferritin and less apoptotic kidney injury. […]

[4] = tested on: hepcidin knockout mice (HAMP−/−); experiment: Renal IRI in HAMP-/- mice: splenic ferroportin and splenic H-Ferritin; assay type: in vivo; settings: for splenic H-Ferritin: HAMP-/- Hepcidin-IRI vs HAMP-/- IRI and vs Sham, p<0.005, FIG. 9c
Procedure: as §1
Snap frozen tissue sections were homogenized in Tris-Triton tissue lysis buffer containing complete protease inhibitor cocktail using a Dounce Homogenizer. Membrane fractions were isolated from the whole kidney lysate using membrane isolation kit (Thermo Pierce) to determine ferroportin expression. H-Ferritin was measured in the whole kidney and spleen lysates. […] The primary antibodies were detected with Donkey anti-goat Alexa 800 and goat anti-rabbit Alexa 800 antibodies (LiCor Bioscience). Mouse monoclonal GAPDH and β-Actin (Abcam) were used as the loading controls and detected using Donkey anti Mouse Alexa 680 antibody (LiCor Bioscience). Quantitation of data was performed using densitometry software (Licor Bioscience).

C57BL/6 mice [5] = experiment: Renal IRI in WT mice: IL-6 levels by ELISA; assay type: in vivo
Procedure: as §1, with “Twenty-four hours later, mice were euthanized, and tissues were harvested.” left out
Serum iron (Abcam), hepcidin (Intrinsic Lifescience) and IL-6 levels (eBioscience) were measured using commercial ELISA kits, as per manufacturers instructions.

splenocytes from WT mice = experiment: Iron stimulation of splenocytes, IL-6 secretion by ELISA; assay type: cell-based; settings: 1 μg/mL hepcidin for 4 hours, vs untreated splenocytes; FIG. 10c
Procedure: Splenocytes were harvested from 10-week-old B6 male mice. After excising the spleen, red blood cells were lysed and the remaining splenocytes were seeded at 1×10^6 cells/mL in 24-well tissue culture plates and cultured under 5% CO2 at 37° C. for 24 hours. The culture medium consisted of RPMI 1640 medium supplemented with 10% fetal calf serum (FCS), 100 U/mL penicillin, 100 μg/mL streptomycin, 1% non-essential amino acids (Gibco/Life Technologies, Foster, Calif., USA), 2 mM L-glutamine (Sigma), and 50/μM 2-mercaptoethanol. After resting for 24 hours, the cells were treated with 10 μM […] (FAC), 1 μg/mL hepcidin or saline for 4 hours. The cell culture supernatants were harvested and quantified for the levels of IL-6 by ELISA (eBioscience).

[6] = Proteinuria (data not shown); assay type: in vivo

With “Mouse hepcidin 25 (DTNFPICIFCCKCCNNSQCGICCKT; listed as Mus musculus)” the “plasma creatinine, comparison of doses” value (C57BL/6 mice [1]; 50 versus 100 μg hepcidin, 24 hours before IRI) was “no significant differences in plasma creatinine”, the “kidney NGAL expression” value (C57BL/6 mice [1]; IRI Vs Hepcidin-IRI, p<0.001) was “significantly lower expression of NGAL” and the “renal architecture / tubular necrosis (H&E)” value (C57BL/6 mice [1]; hepcidin 50 μg 24 hours before IRI, FIG. 2e) was “fewer necrotic tubules and luminal debris”. For the same substance, the plasma creatinine (C57BL/6 mice [1]; hepcidin 50 μg injected 2 hours prior to IRI, p<0.001 vs untreated IRI) was “significantly reduced plasma creatinine levels”, the plasma creatinine (C57BL/6 mice [1]; hepcidin 50 μg injected 8 hours prior to IRI, p<0.001 vs untreated IRI) was “significantly reduced plasma creatinine levels” and the plasma creatinine (C57BL/6 mice [1]; single bolus of 50 or 100 μg hepcidin intraperitoneally, 24 hours before IRI, measured 24 hours after IRI, p<0.0001) was “significantly lowered plasma creatinine levels; also recorded: maximum protection”. For the same substance, the “kidney H-Ferritin expression” value (C57BL/6 mice [2]; hepcidin-IRI Vs IRI p<0.005, Vs Sham p<0.05, FIG. 5c-d) was “significantly higher H-Ferritin expression compared to both untreated IRI mice and sham mice; also recorded: prevented”, the “kidney ferroportin expression (membrane fraction)” value (C57BL/6 mice [2]) was “prevented the IRI induced upregulation” and the “kidney ferroportin expression (membrane fraction)” value (C57BL/6 mice [2]; listed as hepcidin) was “levels comparable to sham mice”. For the same substance, the “kidney Bcl-2 expression” value ([3]; HAMP-/- Hepcidin-IRI Vs HAMP-/- IRI, p<0.005, FIG. 7d) was “prevented the decrease in Bcl-2 expression; also recorded: higher level of anti apoptotic Bcl2”, the “kidney Caspase-3 expression” value [3] was “lower transcriptional activation of pro apoptotic Caspase3” and the “kidney Caspase-3 expression” value ([3]; listed as hepcidin) was “almost completely prevented”. For the same substance, the “TUNEL-positive cells in the kidney” value [3] was “markedly reduced”, the “TUNEL-positive cells in the kidney” value ([3]; listed as hepcidin) was “significantly fewer TUNEL-positive cells” and the “kidney H-Ferritin levels” value [3] was “significantly higher H ferritin levels”. The “kidney H-Ferritin levels” value ([3]; listed as hepcidin) was “significantly higher than in untreated”, the “splenic H-Ferritin” value [4] was “increased splenic H-Ferritin levels” and the “splenic H-Ferritin” value ([4]; listed as hepcidin) was “significantly higher H-Ferritin compared to both untreated IRI mice and sham controls”. For the same substance, the splenic ferroportin expression ([4]; hepcidin reconstitution in HAMP-/- mice, renal IRI) was “lower ferroportin expression than sham-operated mice”, the “serum IL-6 levels” value (C57BL/6 mice [5]; WT-IRI Vs WT Hepcidin-IRI, p<0.007, FIG. 10a) was “prevented IRI-induced increase in IL-6 levels; also recorded: prevented by Hepcidin” and the “splenic, renal, and systemic IL-6 levels” value (C57BL/6 mice [5]; hepcidin treatment, renal IRI (discussion)) was “significantly prevented IRI-induced increase in splenic, renal, and systemic IL-6 levels”. For the same substance, the “IL-6 secretion into supernatants” value (splenocytes from WT mice) was “no significant difference in IL-6 levels” and the proteinuria [6] was “reducing proteinuria”.
